Assay results reported in patent US8030498B2, “Benzoylpyrazole compounds and herbicides containing them” (Ishihara Sangyo Kaisha, Ltd., priority 2005, dated 2011).

How the values were obtained:
[1] = tested on: barnyardgrass (Echinochloa crus-galli L.); assay: Test Example 1: foliar treatment, growth inhibition rate, barnyardgrass; format: in vivo; conditions: visually observed 17th to 23rd day after application
Outline: (§1)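 Seeds were sown in upland field soil in pots. At the target leaf stage (corn 2.0–3.5; greenfoxtail 1.0–3.0; rice 1.0–2.5; wheat 1.7–3.4), the formulated compound, diluted at a water volume of 500 L/ha with 0.1 vol % spreader, was applied by small sprayer. Plants were rated by eye on days 17–23.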

[2] = tested on: crabgrass (Digitaria sanguinalis L.); assay: Test Example 1: foliar treatment, growth inhibition rate, crabgrass; format: in vivo; conditions: visually observed 17th to 23rd day after application
Outline: (§2)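 Visual scoring of growth inhibition, 0% (untreated) to 100% (complete kill), on days 17–23 following post-emergence spray of formulated compound in water (500 L/ha, 0.1 vol % spreader); plants treated at set leaf stages, e.g. corn 2.0–3.5, wheat 1.7–3.4.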

[3] = tested on: greenfoxtail (Setaria viridis L.); assay: Test Example 1: foliar treatment, growth inhibition rate, greenfoxtail; format: in vivo; conditions: visually observed 17th to 23rd day after application
Outline: as §2

[4] = tested on: redroot pigweed (Amaranthus retroflexus L.); assay: Test Example 1: foliar treatment, growth inhibition rate, redroot pigweed; format: in vivo; conditions: visually observed 17th to 23rd day after application
Outline: as §2

[5] = tested on: prickly sida (Sida spinosa L.); assay: Test Example 1: foliar treatment, growth inhibition rate, prickly sida; format: in vivo; conditions: visually observed 17th to 23rd day after application
Outline: as §2

[6] = tested on: velvetleaf (Abutilon theophrasti MEDIC.); assay: Test Example 1: foliar treatment, growth inhibition rate, velvetleaf; format: in vivo; conditions: visually observed 17th to 23rd day after application
Outline: as §1

[7] = tested on: rice (Oryza sativa L.); assay: Test Example 1: foliar treatment, growth inhibition rate, rice; format: in vivo; conditions: visually observed 17th to 23rd day after application
Outline: as §2

[8] = tested on: wheat (Triticum spp.); assay: Test Example 1: foliar treatment, growth inhibition rate, wheat; format: in vivo; conditions: visually observed 17th to 23rd day after application
Outline: as §2

[9] = tested on: corn (Zea mays L.); assay: Test Example 1: foliar treatment, growth inhibition rate, corn; format: in vivo; conditions: visually observed 17th to 23rd day after application
Outline: as §2

[10] = tested on: soybean (Glycine max Merr.); assay: Test Example 1: foliar treatment, growth inhibition rate, soybean; format: in vivo; conditions: visually observed 17th to 23rd day after application
Outline: as §2

[11] = tested on: barnyardgrass; assay: Test Example 2: soil application on the day after sowing, growth inhibition rate, barnyardgrass; format: in vivo, Echinochloa crus-galli L.; conditions: 250 g/ha active ingredient, observed on 19th to 24th day
Outline: (§3)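 Pre-emergence soil treatment: one day post-sowing in upland soil, compound formulations at set active-ingredient rates were applied in 500 L/ha water. Visual rating of growth inhibition (0% untreated-equivalent to 100% complete kill) followed on days 19–24 after application.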

[12] = tested on: crabgrass; assay: Test Example 2: soil application on the day after sowing, growth inhibition rate, crabgrass; format: in vivo, Digitaria sanguinalis L.; conditions: 250 g/ha active ingredient, observed on 19th to 24th day
Outline: as §3

[13] = tested on: greenfoxtail; assay: Test Example 2: soil application on the day after sowing, growth inhibition rate, greenfoxtail; format: in vivo, Setaria viridis L.; conditions: 250 g/ha active ingredient, observed on 19th to 24th day
Outline: as §3

[14] = tested on: redroot pigweed; assay: Test Example 2: soil application on the day after sowing, growth inhibition rate, redroot pigweed; format: in vivo, Amaranthus retroflexus L.; conditions: 250 g/ha active ingredient, observed on 19th to 24th day
Outline: as §3

[15] = tested on: prickly sida; assay: Test Example 2: soil application on the day after sowing, growth inhibition rate, prickly sida; format: in vivo, Sida spinosa L.; conditions: 250 g/ha active ingredient, observed on 19th to 24th day
Outline: as §3

[16] = tested on: velvetleaf; assay: Test Example 2: soil application on the day after sowing, growth inhibition rate, velvetleaf; format: in vivo, Abutilon theophrasti MEDIC.; conditions: 250 g/ha active ingredient, observed on 19th to 24th day
Outline: as §3

[17] = tested on: rice; assay: Test Example 2: soil application on the day after sowing, growth inhibition rate, rice; format: in vivo, Oryza sativa L.; conditions: 250 g/ha active ingredient, observed on 19th to 24th day
Outline: as §3

[18] = tested on: wheat; assay: Test Example 2: soil application on the day after sowing, growth inhibition rate, wheat; format: in vivo, Triticum spp.; conditions: 250 g/ha active ingredient, observed on 19th to 24th day
Outline: as §3

[19] = tested on: corn; assay: Test Example 2: soil application on the day after sowing, growth inhibition rate, corn; format: in vivo, Zea mays L.; conditions: 250 g/ha active ingredient, observed on 19th to 24th day
Outline: as §3

[20] = tested on: soybean; assay: Test Example 2: soil application on the day after sowing, growth inhibition rate, soybean; format: in vivo, Glycine max Merr.; conditions: 250 g/ha active ingredient, observed on 19th to 24th day
Outline: as §3

With `CCSC(=O)Oc1c(C(=O)c2ccc(S(C)(=O)=O)c(OCCC3OCCO3)c2Cl)cnn1CC` [compound 221] the “Growth inhibition rate (%) Barnyardgrass” value ([1]; 63 g/ha active ingredient) was 100%, the “Growth inhibition rate (%) Crabgrass” value ([2]; 63 g/ha active ingredient) was 50% and the “Growth inhibition rate (%) Greenfoxtail” value ([3]; 63 g/ha active ingredient) was 50%. For the same compound, the “Growth inhibition rate (%) redroot pigweed” value ([4]; 63 g/ha active ingredient) was 80%, the “Growth inhibition rate (%) Prickly sida” value ([5]; 63 g/ha active ingredient) was 40% and the “Growth inhibition rate (%) Velvetleaf” value ([6]; 63 g/ha active ingredient) was 60%. For the same compound, the “Growth inhibition rate (%) Rice” value ([7]; 63 g/ha active ingredient) was 20%, the “Growth inhibition rate (%) Wheat” value ([8]; 63 g/ha active ingredient) was 0% and the “Growth inhibition rate (%) Corn” value ([9]; 63 g/ha active ingredient) was 0%. For the same compound, the “Growth inhibition rate (%) Soybean” value ([10]; 63 g/ha active ingredient) was 100%, the “Growth inhibition rate (%) Barnyardgrass” value [11] was 80% and the “Growth inhibition rate (%) Crabgrass” value [12] was 100%. For the same compound, the “Growth inhibition rate (%) Greenfoxtail” value [13] was 70%, the “Growth inhibition rate (%) redroot pigweed” value [14] was 100% and the “Growth inhibition rate (%) Prickly sida” value [15] was 60%. For the same compound, the “Growth inhibition rate (%) Velvetleaf” value [16] was 60%, the “Growth inhibition rate (%) Rice” value [17] was 80% and the “Growth inhibition rate (%) Wheat” value [18] was 0%. The “Growth inhibition rate (%) Corn” value [19] was 0% and the “Growth inhibition rate (%) Soybean” value [20] was 0%.
In the case of `CCSC(=O)Oc1c(C(=O)c2ccc(S(C)(=O)=O)c(CC#N)c2C)cnn1C` [compound 83], the “Growth inhibition rate (%) Barnyardgrass” value ([1]; 31 g/ha active ingredient) is reported as 100%, the “Growth inhibition rate (%) Crabgrass” value ([2]; 31 g/ha active ingredient) is reported as 100% and the “Growth inhibition rate (%) Greenfoxtail” value ([3]; 31 g/ha active ingredient) is reported as 100%. For the same compound, the “Growth inhibition rate (%) redroot pigweed” value ([4]; 31 g/ha active ingredient) was 80%, the “Growth inhibition rate (%) Prickly sida” value ([5]; 31 g/ha active ingredient) was 70% and the “Growth inhibition rate (%) Velvetleaf” value ([6]; 31 g/ha active ingredient) was 95%. The “Growth inhibition rate (%) Rice” value ([7]; 31 g/ha active ingredient) was 80%, the “Growth inhibition rate (%) Wheat” value ([8]; 31 g/ha active ingredient) was 0% and the “Growth inhibition rate (%) Corn” value ([9]; 31 g/ha active ingredient) was 0%. The “Growth inhibition rate (%) Soybean” value ([10]; 31 g/ha active ingredient) was 95%, the “Growth inhibition rate (%) Barnyardgrass” value [11] was 80% and the “Growth inhibition rate (%) Crabgrass” value [12] was 95%. The “Growth inhibition rate (%) Greenfoxtail” value [13] was 40%, the “Growth inhibition rate (%) redroot pigweed” value [14] was 90% and the “Growth inhibition rate (%) Prickly sida” value [15] was 70%. For the same compound, the “Growth inhibition rate (%) Velvetleaf” value [16] was 40%, the “Growth inhibition rate (%) Rice” value [17] was 50% and the “Growth inhibition rate (%) Wheat” value [18] was 0%. For the same compound, the “Growth inhibition rate (%) Corn” value [19] was 0% and the “Growth inhibition rate (%) Soybean” value [20] was 0%.
In the case of `CCSC(=O)Oc1c(C(=O)c2ccc(S(C)(=O)=O)c(OCC3CCCO3)c2C)cnn1C` (stereo not drawn) [compound 211], the “Growth inhibition rate (%) Barnyardgrass” value ([1]; 31 g/ha active ingredient) is reported as 70%, the “Growth inhibition rate (%) Crabgrass” value ([2]; 31 g/ha active ingredient) is reported as 70% and the “Growth inhibition rate (%) Greenfoxtail” value ([3]; 31 g/ha active ingredient) is reported as 70%. For the same compound, the “Growth inhibition rate (%) redroot pigweed” value ([4]; 31 g/ha active ingredient) was 90%, the “Growth inhibition rate (%) Prickly sida” value ([5]; 31 g/ha active ingredient) was 20% and the “Growth inhibition rate (%) Velvetleaf” value ([6]; 31 g/ha active ingredient) was 90%. The “Growth inhibition rate (%) Rice” value ([7]; 31 g/ha active ingredient) was 50%, the “Growth inhibition rate (%) Wheat” value ([8]; 31 g/ha active ingredient) was 0% and the “Growth inhibition rate (%) Corn” value ([9]; 31 g/ha active ingredient) was 20%. For the same compound, the “Growth inhibition rate (%) Soybean” value ([10]; 31 g/ha active ingredient) was 98%, the “Growth inhibition rate (%) Barnyardgrass” value [11] was 60% and the “Growth inhibition rate (%) Crabgrass” value [12] was 98%. For the same compound, the “Growth inhibition rate (%) Greenfoxtail” value [13] was 60%, the “Growth inhibition rate (%) redroot pigweed” value [14] was 100% and the “Growth inhibition rate (%) Prickly sida” value [15] was 70%. The “Growth inhibition rate (%) Velvetleaf” value [16] was 40%, the “Growth inhibition rate (%) Rice” value [17] was 50% and the “Growth inhibition rate (%) Wheat” value [18] was 0%. For the same compound, the “Growth inhibition rate (%) Corn” value [19] was 0% and the “Growth inhibition rate (%) Soybean” value [20] was 0%.
